Results as given in US10941379B2, “Microbial system for biosynthesis of natural and engineered products coupled to in situ extraction in supercritical CO2” (Massachusetts Institute of Technology, priority 2016, dated 2021).

Experiments:
Assay type in all cases: cell-based, Bacillus megaterium
B. megaterium SR7 [1] = assay: M9 supplemented growth under 1 atm CO2 (OD600); settings: amendment to M9 base medium, 1 atm CO2, scored by OD600
Description: Development of a minimal medium enables individual chemical components to be tuned in order to establish optimized growth from a sole carbon source under 1 atm CO2. Initial attempts to generate B. megaterium SR7 growth in triplicate cultures tested various amendments to M9 base medium (thelabrat.com; Table 1), including 0.4% glucose or 0.4% xylose amendments as sole carbon sources, with or without trace metals solution (Boone et al., 1989). The 1× concentration trace metals solution consisted of (in g/l): 0.005 Na2(EDTA), 0.0002 NiSO4.6H2O, 0.0005 CoCl2.6H2O, 0.0001H2FeO3, 0.001 FeSO4.7H2O, 0.0001H3BO3, 0.001 ZnCl2, 0.0001 NaMoO4.2H2O, 0.0004 AlCl3.6H2O, 0.001 MnCl2.4H2O, 0.0003 Na2NO4.2H2O, 0.0002 CaCl2. To further boost growth, triplicate cultures of M9+0.4% glucose were amended with dilute LB (0.001-0.01×) or yeast extract (YE; 0.001-0.01×) as de facto vitamin and co-factor solutions, and/or NaNO3 (5 mM) as an alternative electron acceptor. All M9 incubations were scored for growth by OD600 and designated as robust above OD600>0.600, low level between 0.2-0.6, and no growth below 0.2. Passaged vegetative cultures were also assayed in duplicate for growth (by OD600) amended with a range (0.1×, 0.25×, 1×) of trace metals solutions in M9+0.4% glucose+0.01×YE media, including in the presence and absence of 5 mM NaNO3.

B. megaterium SR7 spores [2] = assay: Spore germination induction in PBS under 1 atm CO2 (fluorescence microscopy, bulk fluorescence); settings: 100 mM, 8.5 hour endpoint (maximum)
Method: The role of candidate germination inducers was subsequently investigated in PBS buffer rather than growth medium to decouple the germination process from outgrowth. B. megaterium SR7 spores were loaded in triplicate 10 ml PBS amended with 100-250 mM L-alanine, 100 mM L-alanine with heat treatment, 25 mM L-leucine, or an unamended PBS control. The extent of germination was measured by fluorescence microscopy staining patterns (e.g., the degree of cell membrane penetration by DNA stain), bulk fluorescence, OD600, and flow cytometry (FCM). A total of 100-300 cells per filter were counted and categorized as either “dormant” or “germinated” if the spore stain was localized to the cell membrane or diffused within the interior of the cell, respectively (Cronin and Wilkinson, 2007). Cells displaying an intermediate degree of stain dispersal (“activated”) were categorized as germinated (FIG. 1).
Sub-sample bulk fluorescence (Syto9®) was measured by microplate reader (BioTek Synergy 2; 485/20 excitation, 528/20 emission) and OD600 was measured by microplate reader. OD should decrease in germinated cells (the index of refraction decreases due to hydration upon spore coat degradation) while bulk fluorescence should increase as the nucleic acid stain progressively penetrates and permeates the cell (Magge et al., 2009). […]

B. megaterium SR7 [3] = assay: Biolog GenIII sole carbon source growth; settings: Table 11
Method: Plates were incubated at 37° C. on a plate shaker at 200 rpm and assayed for growth using NADH-dependent colorimetric changes measured by OD490 on a microplate reader (BioTek Synergy 2; BioTek; Winooski, Vt.).

B. megaterium SR7 spores [4] = assay: Spore germination and growth under scCO2 with germination inducers
Method: SR7 growth outcomes were investigated under scCO2 headspace (90-100 atm; 37° C.) while shaking at 250 rpm. SR7 spores were inoculated at starting concentrations of ˜3×10^4 spores/ml (unless otherwise specified) in either 50 mM K2HPO4-buffered LB (P-LB) or M9+ media (Table 1). Experiments assaying the effect of germination induction included 100 mM L-alanine and 10 mM L-leucine media amendments and heat treatment upon reactor pressurization (70° C. for 10 minutes). Incubations were conducted in 316 stainless steel vessels and gradually pressurized to supercritical conditions using a CO2/He cylinder, as previously described. SR7 germination was verified by the identification of vegetative cell morphologies using fluorescence microscopy of Syto9-stained cultures. Growth was defined by an increase of at least 10-fold growth in cell counts relative to t0.
In order to ascertain whether L-alanine, L-leucine, and heat treatment induce germination under scCO2 headspace, three replicate experiments were conducted comparing growth for SR7 spores when loaded in media P-LB, P-LBL, P-LBAL, or P-LBA±heat treatment (Table 1; Table 2). Reactors were depressurized and scored for germination and growth by fluorescence microscopy, as previously described.
Cell densities of P-LB and L-PBA incubations from the three experiments (Table 3; Incubations A-C) were subjected to statistical analysis to establish the significance of 100 mM L-alanine on spore growth outcomes. A non-parametric Wilcoxon/Kruskal-Wallis Test was performed on the dataset (JMP® Pro v.12; SAS Cary, N.C.) where growth outcome (growth/no growth) and cell density fold change (relative to t0) were dependent variables and incubation time and inducer presence/absence (±100 mM L-alanine) were independent variables. […]

B. megaterium SR7 spores [5] = assay: Delayed germination induction in PBS under 1 atm CO2 (bulk fluorescence, OD600); settings: 9.5 hours after delayed induction in PBS; for OD600 Fold Decrease: OD decrease indicative of germination
Method: Sub-sample bulk fluorescence (Syto9®) was measured by microplate reader (BioTek Synergy 2; 485/20 excitation, 528/20 emission) and OD600 was measured by microplate reader. OD should decrease in germinated cells (the index of refraction decreases due to hydration upon spore coat degradation) while bulk fluorescence should increase as the nucleic acid stain progressively penetrates and permeates the cell (Magge et al., 2009). To test for germination after a delayed inducer spike rather than at the moment of inoculation, B. megaterium SR7 spores loaded at OD600 0.01 were incubated overnight in 30 ml of PBS, passaged into PBS amended with L-alanine (25-250 mM) or L-leucine (10-25 mM) and then assayed for germination by bulk fluorescence and OD600 during incubation.

B. megaterium SR7 spores [6] = assay: Flow cytometry germination assay (Syto16/PI); settings: PBS amended with 2.5, 25, 250 mM
Method: FCM was employed as a high-throughput germination assay based on Baier et al., (2010). Triplicate cultures of B. megaterium SR7 spores loaded at OD600 0.01 were incubated overnight in PBS and PBS amended with 2.5-250 mM L-alanine, along with cell-free PBS controls. Prior to loading on the flow cytometer (BD FACS Canto II HTS-1; Becton Dickinson; Franklin Lakes, N.J.) cultures were diluted 1/50 in PBS and stained with Syto16® and propidium iodide (PI) in the dark for at least 30 minutes prior to analysis. After spore and media-only samples were used to set forward scatter, side-scatter, Syto16 and PI gates, sample data was collected and analyzed using […]™ software (BD Biosciences; Franklin Lakes, N.Y.).

B. megaterium SR7 spores [7] = assay: Spore germination in LB under 1 atm CO2; settings: 100 mM L-alanine-amended LB, unamended cultures grew between 4.5 and 6 hours
Method: The ability to induce spore germination based on literature precedent was tested by inoculating triplicate 10 ml cultures of SR7 spores at OD600 0.01 in LB amended with 100 mM L-alanine, LB subjected to a heat activation (65° C. for 15 minutes) upon inoculation, or unamended LB as a control. Growth was scored by OD600 and LB agar CFU plate counts. In addition, subsamples were heat-killed by exposure to 80° C. for 10 minutes (Setlow, 2006) prior to plating, to ascertain remaining spore concentrations, as heat exposure is lethal to vegetative cells.

SMILES | Growth (B. megaterium SR7 [1]) | Bulk fluorescence relative to PBS only incubated spores (B. megaterium SR7 spores [2]) [fold] | Growth in carbon source Biolog plate, +Metals (B. megaterium SR7 [3]; trace metals-amended plate) | Growth in carbon source Biolog plate, I (B. megaterium SR7 [3]; unamended plate trial I) | Growth in carbon source Biolog plate, II (B. megaterium SR7 [3]; unamended plate trial II) | Growth frequency of cultures under scCO2 (B. megaterium SR7 spores [4]; pooled incubations, 18-20 days, unamended reactors 36%) [%] | Growth frequency of cultures under scCO2 (B. megaterium SR7 spores [4]; with heat treatment) [%] | Fluorescence Fold Increase (B. megaterium SR7 spores [5]; 25 mM inducer) [fold] | OD600 Fold Decrease (B. megaterium SR7 spores [5]; 25 mM inducer) [fold] | Fluorescence Fold Increase (B. megaterium SR7 spores [5]; 100 mM inducer) [fold] | OD600 Fold Decrease (B. megaterium SR7 spores [5]; 100 mM inducer) [fold] | Fluorescence Fold Increase (B. megaterium SR7 spores [5]; 250 mM inducer) [fold] | OD600 Fold Decrease (B. megaterium SR7 spores [5]; 250 mM inducer) [fold] | Spores gated as germinated (Syto16/PI fluorescence) (B. megaterium SR7 spores [6]; PBS only 3.7%) | Spores gated as activated (Syto16/PI fluorescence) (B. megaterium SR7 spores [6]; PBS only 22.0%) | Time to germination (B. megaterium SR7 spores [7]) [h]
O=C[C@H](O)[C@@H](O)[C@H](O)CO [0.4% Xylose, Xylose] | − (no growth below 0.2) |  |  |  |  |  |  |  |  |  |  |  |  |  |  | 
C[C@H](N)C(=O)O [L-alanine] |  | 2.4 | + | + | + | 63 | 50 | 2.1 | 1.5 | 1.4 | 1.2 | 1.4 | 1.2 | 1.38-31.8% | 44-69% | ≤ 4.5
